Read-outs that look alike come from different tables or passages of the source.
Experiments:
[1] = target: T1, human ATGL (Homo sapiens, UniProt Q96AD5); experiment: TG hydrolase activity, Expi cell lysates expressing human ATGL + CGI-58, radiolabelled triolein; format: biochemical
T1 construct: made in house; host or cells: Expi cells (lysate, not purified)
T1 sequence (Q96AD5 1-504): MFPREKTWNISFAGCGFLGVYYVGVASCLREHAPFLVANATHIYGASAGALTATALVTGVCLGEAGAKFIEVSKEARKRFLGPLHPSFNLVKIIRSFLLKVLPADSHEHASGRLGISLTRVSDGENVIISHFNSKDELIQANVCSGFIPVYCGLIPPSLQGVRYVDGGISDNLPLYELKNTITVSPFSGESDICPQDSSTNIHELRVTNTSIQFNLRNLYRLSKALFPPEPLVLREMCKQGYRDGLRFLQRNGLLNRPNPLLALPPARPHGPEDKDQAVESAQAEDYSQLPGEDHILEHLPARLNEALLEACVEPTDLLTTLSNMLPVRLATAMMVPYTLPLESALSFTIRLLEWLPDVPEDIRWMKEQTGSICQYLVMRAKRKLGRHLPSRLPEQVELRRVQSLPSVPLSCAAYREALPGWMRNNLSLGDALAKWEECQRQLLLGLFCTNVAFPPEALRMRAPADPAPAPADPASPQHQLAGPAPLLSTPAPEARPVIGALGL
Procedure, shortened: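 Lysates of Expi cells expressing ATGL, supplemented with purified CGI-58 and inhibitor in DMSO, incubated 1 h at 37 °C with emulsified radiolabelled triolein (330 μM) in potassium phosphate pH 7.0 with 5% FA-free BSA. Released FA counted by liquid scintillation after phase extraction; IC50 versus DMSO control, duplicates.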

[2] = Stability in human serum; format: in vitro ADME; conditions: 37° C., HPLC MS
Description: Inhibitors were incubated in human serum for 0 or 3 h at 37° C. and subsequently extracted with the MTBE method and analyzed via HPLC MS. Samples measured in triplicates.

[3] = system: differentiated SGBS adipocytes; experiment: Isoproterenol-stimulated lipolysis in differentiated SGBS adipocytes; format: cell-based; conditions: Homo sapiens, 2 h pretreatment, 1 μM isoproterenol 1 h
Description: Human differentiated SGBS adipocytes were pretreated with DMSO or ATGL inhibitors for 2 h. Subsequently, lipolysis was stimulated with 1 μM Isoproterenol for 1 h and fatty acid release was determined from media via NEFA Reagent (Wako Diagnostics). Samples were measured in triplicates.
Human differentiated SGBS adipocytes were pretreated with DMSO or ATGL inhibitors for 2 h. Subsequently, lipolysis was stimulated with 1 μM Isoproterenol for 1 h and glycerol release was determined from media via Free glycerol reagent (Sigma Aldrich). Samples were measured in triplicates.

[4] = target: T2, rat ATGL (Rattus norvegicus, UniProt P0C548); experiment: Rat ATGL inhibition, Expi lysates + CGI-58; format: biochemical
T2 construct: made in house; host or cells: Expi cells (lysate)
T2 sequence (P0C548 1-478): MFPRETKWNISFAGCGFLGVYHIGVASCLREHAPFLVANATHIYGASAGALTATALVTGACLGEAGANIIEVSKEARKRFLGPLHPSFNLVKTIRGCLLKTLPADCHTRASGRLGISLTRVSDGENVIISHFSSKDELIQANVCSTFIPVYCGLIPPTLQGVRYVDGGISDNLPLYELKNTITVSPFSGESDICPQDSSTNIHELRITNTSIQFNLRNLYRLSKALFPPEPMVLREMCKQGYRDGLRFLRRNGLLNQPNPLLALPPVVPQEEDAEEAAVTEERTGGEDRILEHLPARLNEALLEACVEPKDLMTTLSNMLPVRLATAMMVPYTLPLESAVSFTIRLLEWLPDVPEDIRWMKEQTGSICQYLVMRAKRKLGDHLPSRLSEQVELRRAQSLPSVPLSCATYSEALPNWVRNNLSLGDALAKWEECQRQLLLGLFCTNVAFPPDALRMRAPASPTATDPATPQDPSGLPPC
Description: (§1) Lysates from Expi cells overexpressing ATGL from rat (Rattus norvegicus) were incubated with recombinant purified ATGL co-activator CGI-58 and ATGL inhibitors at 50 μM. Subsequently, substrate containing radiolabeled triolein was added and liberated FA were extracted and quantified by liquid scintillation. Inhibitors were dissolved in DMSO which was used as control. Samples were measured in triplicates.

[5] = system: pig vWAT; experiment: Pig vWAT inhibition, visceral adipose tissue lysates + CGI-58; format: biochemical
Description: as §1, with “visceral adipose tissue of pigs (Sus scrofa)” for “Expi cells overexpressing ATGL from rat (Rattus norvegicus)”

[6] = system: AML-12 cells; experiment: Toxicity screening (LDH) in AML-12 cells; format: cell-based, mouse; conditions: 24 h treatment, LDH release
Description: AML-12 cells were seeded in 96 well plates and at 80% confluency treated with DMSO (0.5% final conc.) or ATGL Inhibitors for 24 h in DMEM+P/S+3% heat inactivated FCS (3 h at 62° C.). Subsequently, medium was centrifuged at 300 g for 3 min, and LDH activity of 50 μl supernatant was determined via the Roche LDH Kit. Samples measured in triplicates.

[7] = system: differentiated 3T3-L1 adipocytes; experiment: Isoproterenol-stimulated lipolysis in differentiated 3T3-L1 adipocytes; format: cell-based; conditions: Mus musculus, 2 h pretreatment
Description: Mouse differentiated 3T3-L1 adipocytes were pretreated with DMSO or ATGL inhibitors for 2 h. Subsequently, lipolysis was stimulated with 1 μM Isoproterenol for 1 h and fatty acid release was determined from media via NEFA Reagent (Wako Diagnostics). Samples were measured in triplicates.
Mouse differentiated 3T3-L1 adipocytes were pretreated with DMSO or ATGL inhibitors for 2 h. Subsequently, lipolysis was stimulated with 1 μM Isoproterenol for […] and glycerol release was determined from media via Free glycerol reagent (Sigma Aldrich). Samples were measured in triplicates.

[8] = Example 237, read-out: Inhibition of human ATGL − IC50
[9] = fatty acid release, read-out: IC50 SGBS FA release
[10] = glycerol release, read-out: IC50 SGBS glycerol release
[11] = Example 238, read-out: Inhibition of human ATGL IC50
[12] = 1 μM isoproterenol 1 h, fatty acid release, read-out: IC50 3T3 FA release
[13] = 1 μM isoproterenol, glycerol release, read-out: IC50 3T3 glycerol release

SMILES | IC50 [1, 8] [µM] | Stability in human serum [% rest after 3 h incubation] [2] [%] | IC50 [3, 9] [µM] | IC50 [3, 10] [µM] | inhibition at 50 µM [4] [%] | pig vWAT inhibition [% inhibition at 50 μM [5] [%] | IC50 [1, 11] [µM] | Tox AML-12 (LDH) seen from [6] [µM] | IC50 [7, 12] [µM] | IC50 [7, 13] [µM]
CCOc1ccc(-c2cc(OC)cc(C(=O)OC(C)C)n2)cc1 [Example 35] | 1 | 75 | 1 | 2 |  |  |  |  |  | 
CCOc1ccc(-c2nc(C(=O)OCc3cccs3)cs2)cc1 [Example 152, Thiophen-2-ylmethyl 2-(4-ethoxyphenyl)thiazole-4-carboxylate] | 10 | 80 |  |  | 10 | 0 |  |  |  | 
CCOc1ccc(-c2cccc(C(=O)OCc3cccs3)n2)cc1 [Example 189, Thiophen-2-ylmethyl 6-(4-ethoxyphenyl)picolinate] |  | 25 |  |  | 10 | 15 | 25 | 200 |  | 
CCOc1ccc(-c2cccc(C(=O)OCc3ccco3)n2)cc1 [Example 190, Furan-2-ylmethyl 6-(4-ethoxyphenyl)picolinate] |  | 0 | 12 | 25 | 40 | 0 | 15 | 200 | 6 | 25
COc1cc(C(=O)OC(C)C)nc(-c2ccc(OC(C)C)cc2)c1 [Example 201, Isopropyl 6-(4-isopropoxyphenyl)-4-methoxypicolinate] |  | 100 |  |  | 0 | 0 | < 3 | 200 |  | 
CC#CCOC(=O)c1csc(-c2ccc(OCC)cc2)n1 [Example 209, But-2-yn-1-yl 2-(4-ethoxyphenyl)thiazole-4-carboxylate] |  | 75 |  |  | 40 | 0 | 10 | 100 |  | 
C#C[C@H](C)OC(=O)c1csc(-c2ccc(OCC)cc2)n1 [Example 210, (S)-But-3-yn-2-yl 2-(4-ethoxyphenyl)thiazole-4-carboxylate] |  | 100 | 0.6 | 1 | 15 | 5 | < 3 | 200 |  | 
C#C[C@@H](C)OC(=O)c1csc(-c2ccc(OCC)cc2)n1 [Example 211, (R)-But-3-yn-2-yl 2-(4-ethoxyphenyl)thiazole-4-carboxylate] |  | 90 | 0.9 | 0.9 | 50 | 5 | < 3 | 100 | 4 | 20
CCCCOC(=O)c1csc(-c2ccc(OCC)cc2)n1 [Example 212, Butyl 2-(4-ethoxyphenyl)thiazole-4-carboxylate] |  | 50 |  |  | 40 | 5 | 7 | 200 |  | 
CCOc1ccc(-c2nc(C(=O)OCc3ccsc3)cs2)cc1 [Example 215, Thiophen-3-ylmethyl 2-(4-ethoxyphenyl)thiazole-4-carboxylate] |  | 80 | 3 | 4 | 50 | 15 | < 3 |  | 6 | 15
CCOc1ccc(-c2nc(C(=O)OCc3ccoc3)cs2)cc1 [Example 216, Furan-3-ylmethyl 2-(4-ethoxyphenyl)thiazole-4-carboxylate] |  | 60 | 0.8 | 1 | 50 | 15 | < 3 | 50 | 10 | 25
CCOc1ccc(-c2nc(C(=O)OCc3ccc(Cl)s3)cs2)cc1 [Example 223, (5-Chlorothiophen-2-yl)methyl 2-(4-ethoxyphenyl)thiazole-4-carboxylate] |  | 80 |  |  | 40 | 15 | 12 |  |  | 
CCOc1ccc(-c2nc(C(=O)OCc3ccc(Br)s3)cs2)cc1 [Example 224, (5-Bromothiophen-2-yl)methyl 2-(4-ethoxyphenyl)thiazole-4-carboxylate] |  |  |  |  | 40 | 15 | 12 |  |  | 

Reference: patent publication US20220289698A1, “INHIBITORS OF HUMAN ATGL” (Karl-Franzens-Universität Graz, priority 2019, published 2022)
